According to the NIST ThermoML archive (doi:10.1016/j.fluid.2006.09.017):
± gives the expanded uncertainty stated by the source.

Conditions: Liquid

| SMILES | vapor or sublimation pressure (258.15 K) | vapor or sublimation pressure (263.15 K) | vapor or sublimation pressure (268.15 K) | vapor or sublimation pressure (275.15 K) | vapor or sublimation pressure (283.15 K) | vapor or sublimation pressure (293.15 K) | vapor or sublimation pressure (303.15 K) | vapor or sublimation pressure (313.15 K) | vapor or sublimation pressure (323.15 K) | vapor or sublimation pressure (333.15 K) | vapor or sublimation pressure (343.15 K) |
| --- | --- | --- | --- | --- | --- | --- | --- | --- | --- | --- | --- |
| FCC(F)(F)F [1,1,1,2-tetrafluoroethane] | 163.9 ± 5.9 kPa | 200.6 ± 6.8 kPa | 243.3 ± 7.9 kPa | 314.6 ± 10 kPa | 414.6 ± 13 kPa | 571.7 ± 18 kPa | 770.2 ± 24 kPa | 1017 ± 32 kPa | 1318 ± 41 kPa | 1682 ± 52 kPa | 2117 ± 66 kPa |
| FCF [difluoromethane] | 488.1 ± 15 kPa |  | 690.6 ± 22 kPa | 866.5 ± 27 kPa | 1107 ± 35 kPa | 1475 ± 46 kPa | 1928 ± 60 kPa | 2478 ± 77 kPa | 3141 ± 98 kPa | 3933 ± 120 kPa | 4877 ± 150 kPa |
